Results as given in patent US9028856B2, “Synergistic pesticide compositions” (priority 2008, dated 2015).

How the values were obtained:
[1] = test system: Musca domestica, resistant strain Reichswald; test: Efficacy of formulations on surfaces (glazed/unglazed tiles), house flies, continuous exposure; type: in vivo; conditions: strain RW resistant, acetone solutions on glazed tiles, mean of three replicates
Description: All surfaces were provided with talcum-coated glass rings (diameter 9.5 cm, height 5.5 cm) one day later.
The test insects were anesthetized with CO2, 20 individuals were placed onto the treated surfaces and the glass ring was covered with wire gauze ring. […]
Each test consisted of at least one replicate and any additional replicates are noted.
Test Insects: House flies (Musca domestica) of both sexes, susceptible strain WHO(N) and resistant strain Reichswald
Evaluation: Mortality was evaluated cumulatively at different times. […]
Test Insects: Culex quinquefasciatus (adults) (3 minutes exposure time according to USDA Petri Dish Method), Musca domestica (adults), susceptible and resistant strain, Blattella germanica (males), Cimex lectularius (adults) (all: continuous exposure time)
Application: The EC formulation (diluted with water 1:9) were applied as 0.85 ml solutions onto glazed tiles (15 cm×15 cm)

[2] = test system: Musca domestica, resistant strain Reichswald; test: as above; type: in vivo; conditions: strain RW resistant, acetone solutions on glazed tiles, mean of three replicates; remark: listed apart in the source
[3] = test system: bait averse/resistant German cockroach (IHOP strain), Blattella germanica; test: Knockdown/mortality of male cockroaches under continuous exposure on treated glazed tile; type: in vivo; conditions: Table 42, aqueous permethrin/adjuvant, IHOP strain
Description: Treatments were allowed to dry overnight. […] Treatments were replicated a minimum of three times. Evaluations for cockroach knockdown/mortality were made at various intervals for 1 hour and at 24 hours after exposure.
Treatments were allowed to dry overnight. […] Evaluations for cockroach knockdown/mortality were made at various intervals and at 60 minutes after exposure.
(§1) Treatments were allowed to dry overnight. […] Treatments were replicated a minimum of three times.

[4] = test system: Odorous House ant, Tapinoma sessile; test: Knockdown/mortality of ant workers under continuous exposure on treated glazed tile; type: in vivo; conditions: Table 43, aqueous permethrin/adjuvant, glazed tile
How it was run: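 Each tile surface (about 5″×5″) was treated, left to dry overnight and tested in a minimum of three replicates.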

[5] = test system: susceptible/normal German cockroach (Monheim strain), Blattella germanica; test: Knockdown/mortality of male cockroaches under continuous exposure on treated glazed tile; type: in vivo; conditions: Table 45, aqueous permethrin/adjuvant, glazed tile, Monheim strain
How it was run: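 Male cockroaches continuously exposed on treated glazed tile, dried overnight before exposure; at least three replicates. Knockdown/mortality scored at intervals from 5 or 10 min, over runs lasting 20 min to 24 h depending on test.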

[6] = test system: Red Imported Fire ant (RIFA), Solenopsis invicta; test: Knockdown/mortality of ant workers under continuous exposure on treated glazed tile; type: in vivo; conditions: Table 44, aqueous permethrin/adjuvant, glazed tile
Description: Treatments were allowed to dry overnight. […] Treatments were replicated minimum three times.
as §1

Aedes aegypti mosquito = test: USDA Petri Dish Method, 3 min exposure to dipped fiberglass window screen; type: in vivo; conditions: dipped screen, 3 min exposure
Description: MATERIALS AND METHODS: Aqueous solutions of 1% deltamethrin with and without an adjuvant composition, which is sold under the tradename Suspend® SC. […] Pre-cut fiberglass screen (5″×5″, or 161.3 cm^2) were dipped in each treatment solution and excessive solution was allowed to drain completely (see FIG. 23 a). Weight of the solution coated on the screen was then determined. The treated screen was then allowed to air-dry overnight. USDA Petri Dish Method was used as initial screening protocol (see FIG. 23 b). Twenty, 4-6 day old female Aedes aegypti were exposed to treated window screen for 3 minutes and then moved onto a clean untreated white paper index card. Treatments were replicated a minimum of three times. Mosquito knockdown was evaluated at 3 minute intervals for the first 15 minutes and then at 5 minute intervals for the remainder of an hour. A small cotton ball with sucrose solution was added on the screen top of the Petri dish as a drinking source. Mortality was evaluated at 24 hours after exposure.
MATERIALS AND METHODS: Several rates of permethrin without adjuvant were prepared using product sold under the tradename Permanone® 40 to determine an effective rate against Aedes aegypti mosquitoes. After determining an effective rate range, aqueous solutions of permethrin at 1.25, 1.0 and 0.05% AI were prepared with and without adjuvant. […] Pre-cut fiberglass screens (5″×5″ or 161.3 cm^2) were dipped in each treatment solution allowing excessive solution to drain completely. Weight of the solution coated on the screen was then determined. The treated screen was then allowed to air-dry overnight. USDA Petri Dish Method was used as initial screening protocol (see photo, right). Twenty, 4-6 day old female Aedes aegypti were exposed to treated window screen for 3 minutes and then moved to a clean untreated white paper index card. Treatments were replicated a minimum of three times. Mosquito knockdown was evaluated at 3 minute intervals for the first 15 minutes and then at 5 minute intervals for the remainder of an hour. A small cotton ball with sucrose solution was added on the screen top of the petri-dish as a drinking source. Mortality was evaluated at 24 hours after exposure.

[7] = test system: Argentine ant, Linepithema humile; test: Knockdown/mortality of ant workers under continuous exposure on treated glazed tile; conditions: Table 41, aqueous permethrin/adjuvant, glazed tile
How it was run: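 0.5% AI imidacloprid in acetone, alone or with 0.1, 1.0 or 5.0% additive (benzenepropanoic acid, oleic acid, methyl oleate, methyl linoleate, methyl palmitate or BHA), 1 ml dried overnight on glazed tile (~161 cm^2). Ten workers confined under continuous exposure, water from 3 h; knockdown/mortality scored at intervals and 24 h; ≥3 replicates.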

[8] = Table 39, permethrin without adjuvant (Permanone 40)
[9] = Table 40, aqueous permethrin/adjuvant

Q: What does the source list for CC1(C)[C@H](C(=O)O[C@H](C#N)c2cccc(Oc3ccccc3)c2)[C@@H]1C=C(Br)Br [0.020% DTM]?
A: % Mortality after ([1]; 15′): 0%; % Mortality after ([1]; 30′): 0%; % Mortality after ([1]; 1 h): 0%; % Mortality after ([1]; 3 h): 0%; % Mortality after ([2]; 2 h): 0%; % Mortality after ([2]; 24 h): 7%

Q: Which “Average % Mortality after 10 min” value ([3]; 10 min) does the source give for CC1(C)C(C=C(Cl)Cl)C1C(=O)OCc1cccc(Oc2ccccc2)c1 (centres unmarked) [Permethrin (0.5%)] here?
A: 40%

Q: What about the “Average % Mortality after 20 min” value ([3]; 20 min) of the same compound?
A: 87%

Q: And the “Average % Mortality after 40 min” value ([3]; 40 min)?
A: 93%

Q: What about the “Average % Mortality after 60 min” value ([3]; 60 min) of the same compound?
A: 100%

Q: What about the “Average % Mortality after 10 min” value ([4]; 10 min) of the same compound?
A: 13%

Q: What about the “Average % Mortality after 20 min” value ([4]; 20 min) of the same compound?
A: 50%

Q: And the “Average % Mortality after 30 min” value ([4]; 30 min)?
A: 93%

Q: And the “Average % Mortality after 60 min” value ([4]; 60 min)?
A: 100%

Q: And the “Average % Mortality after 10 min” value ([5]; 10 min)?
A: 100%

Q: And the “Average % Mortality after 20 min” value ([5]; 20 min)?
A: 100%

Q: And the “Average % Mortality after 30 min” value ([5]; 30 min)?
A: 100%

Q: And the “Average % Mortality after 4 hr” value ([5]; 4 hr)?
A: 100%

Q: What about the “Average % Mortality after 5 min” value ([6]; 5 min) of the same compound?
A: 43%

Q: What about the “Average % Mortality after 15 min” value ([6]; 15 min) of the same compound?
A: 100%

Q: What about the “Average % Mortality after 30 min” value ([6]; 30 min) of the same compound?
A: 100%

Q: And the “Average % Mortality after 60 min” value ([6]; 60 min)?
A: 100%

Q: What about the “Average % Knockdown & Mortality after 3 min” value (Aedes aegypti mosquito; [8]) of the same compound?
A: 0%

Q: And the “Average % Knockdown & Mortality after 3 min” value (Aedes aegypti mosquito; [9])?
A: 0%

Q: What about the “Average % Knockdown & Mortality after 9 min” value (Aedes aegypti mosquito; [8]) of the same compound?
A: 0%

Q: What about the “Average % Knockdown & Mortality after 9 min” value (Aedes aegypti mosquito; [9]) of the same compound?
A: 1%

Q: What about the “Average % Knockdown & Mortality after 15 min” value (Aedes aegypti mosquito; [8]) of the same compound?
A: 0%

Q: What about the “Average % Knockdown & Mortality after 15 min” value (Aedes aegypti mosquito; [9]) of the same compound?
A: 1%

Q: And the “Average % Knockdown & Mortality after 30 min” value (Aedes aegypti mosquito; [8])?
A: 0%

Q: And the “Average % Knockdown & Mortality after 30 min” value (Aedes aegypti mosquito; [9])?
A: 0%

Q: What about the “Average % Knockdown & Mortality after 60 min” value (Aedes aegypti mosquito; [8]) of the same compound?
A: 0%

Q: And the “Average % Knockdown & Mortality after 60 min” value (Aedes aegypti mosquito; [9])?
A: 0%

Q: And the “Average % Knockdown & Mortality after 24 hr” value (Aedes aegypti mosquito; [8])?
A: 9%

Q: And the “Average % Knockdown & Mortality after 24 hr” value (Aedes aegypti mosquito; [9])?
A: 6%

Q: What about the “Average % Mortality after 5 min” value ([7]; 5 min) of the same compound?
A: 58%

Q: And the “Average % Mortality after 10 min” value ([7]; 10 min)?
A: 100%

Q: What about the “Average % Mortality after 15 min” value ([7]; 15 min) of the same compound?
A: 100%

Q: And the “Average % Mortality after 20 min” value ([7]; 20 min)?
A: 100%
